Test systems include DU-145; NCI-H226; PC-3; IGROV-1; MOLT-4; A549; UACC-257; HOP-92; MDA-N; SR; OVCAR-5; NCI-H23; U-251; NCI-H460; BT-549; SW-620; MDA-MB-435; HCT-15; OVCAR-4; MCF7.
Common to all, as to experiment: NCI anticancer screen, dose series, 48 h

The results in this text go back to ChEMBL document CHEMBL1201862, “PubChem BioAssay data set” (2004).

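Test compounds were applied to cells in 96-well plates for 48 hours at 5 doses. Abbreviation: GI50, concentration required for 50% inhibition of growth.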 Calls of active or inactive are those of the source. No stated cut-off is given here; in the data, active = GI50 up to about 1.1 µM and inactive = higher.

Turning to `NC(=O)/N=C(\N)NC(=O)c1ccccc1`, the GI50 with DU-145, in the experiment on NCI-H226, with PC-3, with IGROV-1, with MOLT-4 and with A549 was > 100 µM (inactive) each time. Besides, the GI50 in the experiment with UACC-257, in the experiment with HOP-92, in the experiment on MDA-N, with SR, with OVCAR-5 and in the experiment with NCI-H23 was > 100 µM (inactive) in each case. For the same compound, the GI50 with U-251 was > 100 µM (inactive); with NCI-H460 it was > 100 µM (inactive); in the experiment with BT-549, > 100 µM (inactive); in the experiment on SW-620, > 100 µM (inactive); in the experiment on MDA-MB-435, > 100 µM (inactive); in the experiment with HCT-15, more than 100 µM.

On to `Cc1c(Cl)c(S(N)(=O)=O)cc2c1N=CNS2(=O)=O`, for which the GI50 in the experiment with DU-145, in the experiment with OVCAR-4, in the experiment on NCI-H226, in the experiment with PC-3, in the experiment on IGROV-1 and in the experiment with MOLT-4 was > 100 µM (inactive) each time. Also, the GI50 in the experiment on A549, in the experiment with UACC-257, in the experiment with HOP-92, with MDA-N, with OVCAR-5 and with MCF7 was > 100 µM (inactive) in each case. Moreover, the GI50 in the experiment with NCI-H23, in the experiment with U-251, in the experiment with NCI-H460, with BT-549, in the experiment on SW-620 and with MDA-MB-435 was > 100 µM (inactive) throughout. The GI50 with HCT-15 is more than 100 µM.

With `N#CC(c1nc2ccccc2s1)c1nc(Cl)ncc1Br` (stereo unspecified), the GI50 with DU-145 is 45.7 µM (inactive); in the experiment on OVCAR-4, 47.8 µM (inactive); in the experiment on NCI-H226, 39.5 µM (inactive); with IGROV-1, 28.9 µM (inactive); with MOLT-4 it was 72.4 µM (inactive); in the experiment on A549 it was 46.5 µM (inactive). The GI50 was 77.4 µM (inactive) in the experiment with UACC-257; 18.2 µM (inactive) in the experiment on HOP-92; 36 µM (inactive) with MDA-N; > 100 µM (inactive) with OVCAR-5; 23.6 µM (inactive) in the experiment on NCI-H23; 29.4 µM (inactive) in the experiment on U-251. Further, the GI50 with NCI-H460 is 46 µM (inactive); with BT-549 it was 25.2 µM (inactive); in the experiment with SW-620 it was 42.6 µM (inactive); with MDA-MB-435 it was 50.6 µM (inactive); in the experiment with HCT-15, 29.1 µM.

As to `COc1ccc(NC(=S)N/N=C\c2ccc(NC(C)=O)cc2)cc1`, the GI50 in the experiment on DU-145, in the experiment on OVCAR-4, with PC-3, in the experiment with IGROV-1, with MOLT-4 and in the experiment with A549 was > 100 µM (inactive) in each case. In addition, the GI50 in the experiment on UACC-257 is > 100 µM (inactive); in the experiment with HOP-92, > 100 µM (inactive); in the experiment with MDA-N, > 100 µM (inactive); in the experiment with SR, 14.2 µM (inactive); with OVCAR-5 it was > 100 µM (inactive); in the experiment on NCI-H23 it was > 100 µM (inactive). Further, the GI50 in the experiment with U-251, in the experiment with NCI-H460, with BT-549, in the experiment on SW-620 and in the experiment on MDA-MB-435 was > 100 µM (inactive) throughout.

With `Cc1ccc(OCC2=NN3C(=O)/C(=C\c4ccc([N+](=O)[O-])o4)SC3N2)cc1` (stereo unspecified), the GI50 is 5.68 µM (inactive) in the experiment on DU-145; 2.99 µM (inactive) in the experiment on OVCAR-4; 15.4 µM (inactive) with NCI-H226; 5.5 µM (inactive) in the experiment with PC-3; 10.5 µM (inactive) with IGROV-1; 2.33 µM (inactive) in the experiment with MOLT-4. For the same compound, the GI50 was 19 µM (inactive) in the experiment on A549; 12.8 µM (inactive) in the experiment with UACC-257; 2.8 µM (inactive) in the experiment on HOP-92; 4.3 µM (inactive) in the experiment on MDA-N; 2.94 µM (inactive) in the experiment with SR; 19.2 µM (inactive) with OVCAR-5. Besides, the GI50 was 11.9 µM (inactive) with NCI-H23; 15.8 µM (inactive) in the experiment on U-251; 18.7 µM (inactive) in the experiment with NCI-H460; 12.5 µM (inactive) in the experiment with BT-549; 2.93 µM (inactive) in the experiment with SW-620; 5.47 µM (inactive) in the experiment on MDA-MB-435. In the experiment with HCT-15, this compound gave a GI50 of 2.42 µM.

Consider `O=C(O)CCCN1CCCCC1`, for which the GI50 in the experiment with DU-145, with OVCAR-4, in the experiment with NCI-H226, in the experiment with PC-3, in the experiment with IGROV-1 and in the experiment with MOLT-4 was > 100 µM (inactive) each time. Also, the GI50 with A549, with UACC-257, in the experiment with HOP-92, with MDA-N, with SR and in the experiment on OVCAR-5 was > 100 µM (inactive) in each case. Besides, the GI50 with NCI-H23, in the experiment on U-251, in the experiment with NCI-H460, in the experiment with BT-549, in the experiment with SW-620 and in the experiment with MDA-MB-435 was > 100 µM (inactive) throughout. Moreover, the GI50 in the experiment on HCT-15 is more than 100 µM.

As for `CC(C)c1ccc2c(c1)[C@@]1(C)CC[C@H](C)C(C)(C)C1CC2` (stereo partly specified), the GI50 in the experiment on DU-145 is 25.7 µM (inactive); in the experiment on OVCAR-4, 15.9 µM (inactive); with NCI-H226, 17.3 µM (inactive); in the experiment with IGROV-1, 51.8 µM (inactive); with MOLT-4, 37 µM (inactive); in the experiment with A549 it was 17.4 µM (inactive). Also, the GI50 was 19.5 µM (inactive) in the experiment with UACC-257; 16.9 µM (inactive) in the experiment on HOP-92; 26.1 µM (inactive) in the experiment with MDA-N; 27.5 µM (inactive) in the experiment with SR; 24.4 µM (inactive) in the experiment with OVCAR-5; 17.2 µM (inactive) in the experiment with MCF7. For the same compound, the GI50 in the experiment with NCI-H23 is 18.8 µM (inactive); in the experiment with NCI-H460, 18.6 µM (inactive); in the experiment on BT-549, 20.6 µM (inactive); in the experiment with SW-620, 47.8 µM (inactive); with MDA-MB-435 it was 16.9 µM (inactive); with HCT-15, 18.1 µM.

Take `CC(O)c1cc2c(s1)C(=O)c1c(C(C)O)csc1C2=O` (stereo unspecified): the GI50 with DU-145 is 0.119 µM (active); with OVCAR-4, 0.177 µM (active); in the experiment with NCI-H226, 0.264 µM (active); with PC-3 it was 0.117 µM (active); in the experiment on IGROV-1 it was 0.152 µM (active); in the experiment with MOLT-4, 0.181 µM (active). Further, the GI50 was 0.184 µM (active) in the experiment on A549; 0.0803 µM (active) in the experiment with UACC-257; 0.248 µM (active) with HOP-92; 0.0226 µM (active) in the experiment with MDA-N; 0.277 µM (active) with OVCAR-5; 0.0573 µM (active) in the experiment with MCF7. In addition, the GI50 is 0.0561 µM (active) in the experiment with NCI-H23; 0.316 µM (active) in the experiment with U-251; 0.0451 µM (active) in the experiment on NCI-H460; 0.19 µM (active) in the experiment on BT-549; 0.118 µM (active) with SW-620; 0.0252 µM (active) in the experiment with MDA-MB-435. For the same compound, in the experiment with HCT-15, the GI50 was 0.133 µM.
